In patent publication US20240277797A1, “METHOD FOR TREATING OR PREVENTING NEOVASCULAR EYE DISEASE” (Suzhou Mingren Pharmaceutical Biotechnology Co., Ltd., priority 2022, published 2024):
Where a SMILES comes first, the peptide text is derived from it.

B1: Ranibizumab (antibody, chains of the INN, looked up, V domains shown)
VH: EVQLVESGGGLVQPGGSLRLSCAASGYDFTHYGMNWVRQAPGKGLEWVGWINTYTGEPTYAADFKRRFTFSLDTSKSTAYLQMNSLRAEDTAVYYCAKYPYYYGTSHWYFDVWGQGTLVTVSS
VL: DIQLTQSPSSLSASVGDRVTITCSASQDISNYLNWYQQKPGKAPKVLIYFTSSLHSGVPSRFSGSGSGTDFTLTISSLQPEDFATYYCQQYSTVPWTFGQGTKVEIK
modifications: Fab
notes: anti-VEGF antibody drug used as positive control

Legend:
CNV lesions = conditions: mouse, in vivo, ip
Experimental: One week after laser induction, mice with choroidal neovascularization were randomly divided into two groups (10 mice per group), and injected intraperitoneally with 5 mg of FITC-JP1 and 0.99 mg of FITC 100 uL (both groups were injected with equal amounts of FITC intraperitoneally), respectively. The intensity of FITC in the living retina was determined using the FFA method (n=5/group). To evaluate the accumulation of FITC in CNV lesions, mice were euthanized at 1, 3, 8, 24, and 48 h after intraperitoneal injection of FITC-JP1 or FITC, respectively. Then, choroidal spreads were observed by fluorescence microscopy.

[1] = Solubility of the synthesized peptides; assay type: physicochemical
Experimental: Peptide JP1 and others were synthesized by GL Biochem (Shanghai) Ltd. and Hybio Pharmaceutical Co., Ltd. (Shenzhen, China, under standard GMP conditions. Purity >98%, water-soluble. Freeze dried powder is stored for a long time at −20° C.

[2] = test system: streptozotocin (STZ)-induced diabetes mouse model; assay: Streptozotocin-induced diabetes mouse model: retinal vascular density and leakage; assay type: in vivo; conditions: STZ diabetic mice, intraocular injection once a week, 4 times; compared to normal mice of the same age
Experimental: C57BL/6 mice (male, 3-5 weeks old) were administered with intraperitoneal injection of streptozotocin (STZ) (7.5 mg/mL; S-0130, Sigma Aldrich, St. Louis, MO, USA), fresh dissolved Na Citrate (CAM) buffer (pH: 4.5-4.7; S4641, Sigma) at a dose of 50 mg/kg, once daily, for 5 consecutive days. After one week, blood sugar ≥300 mg/dL was regarded as the onset of diabetes. Only mice with sustained high sugar for 3 weeks were used for subsequent experiments. […] The blood glucose of mice was measured every month to confirm the status of diabetes. Two months after the onset of diabetes, the mice were randomly divided into four groups with 10 mice in each group. […]
After the mice were anesthetized, 1 mL of PBS containing 40 mg/mL fluorescein isothiocyanate-glucan was perfused into the left ventricle (average mol wt: 2×10^6, Sigma, St Louis, MO, USA). […] Stretched preparation was made, and observe the flat bracket using a fluorescence microscope and take photos. The vascular density of capillary networks was analyzed using Angio Tool image analysis software. […]
Evans blue (45 mg/kg) was injected through the tail vein of mice for more than 10 s. […] Plasma Evans blue concentration was determined by taking 100 uL of blood. […]

Molecule | accumulation of FITC at CNV lesions (retinal choroidal plain films) (CNV lesions) | solubility [1] | retinal vascular density [2]
N=C(N)NCCC[C@H](NC(=O)[C@H](Cc1ccccc1)NC(=O)[C@H](CCCNC(=N)N)NC(=O)[C@H](CC(=O)O)NC(=O)[C@H](COP(=O)(O)O)NC(=O)CNC(=O)[C@@H]1CCCN1C(=O)[C@@H](N)Cc1ccccc1)C(=O)NCC(=O)N[C@@H](CC(=O)O)C(=O)O [JP1] (HELM PEPTIDE1{F.P.G.[O=C([C@H](COP(=O)(O)O)N[*:1])[*:2]].D.R.F.R.G.D}$$$$V2.0; N-terminus and C-terminus assumed) | enhanced the accumulation of FITC at CNV lesions | water-soluble | –
B1 | – | – | no significant decrease in retinal vascular density
